Ends that are not written are not given here.
How the values were obtained:
MC3T3 cells = assay: Cell growth of MC3T3 cells (cell number); assay type: cell-based, mouse; conditions: αMEM containing 2% FBS; on Day 6; versus control (FIG. 3)
Protocol: (§1) As mouse-derived osteoblasts, cells of the MC3T3 cell strain or ST2 cell strain (purchased from Riken Cell Bank) were used. • (iii) Rat Femur Bone Marrow-derived Mesenchymal Stem Cells (BMMSC)
The PDL cells prepared in (1) were inoculated on a 24-well culture plate (FALCON) at a ratio of 5×10^3 cells/well. After the inoculation, the cells were cultured in DMEM containing 10% FBS for 1 day. On Day 0, next day of the inoculation, the peptide (a) prepared above was added to a culture medium (DMEM containing 2% FBS) at various concentrations. On Days 4 and 6, the cells were separated and dispersed by using PBS containing 0.08% trypsin and 0.04% ethylenediaminetetraacetic acid (EDTA), and cell number was counted by using a Coulter counter (COULTER Z1, Coulter Electronics).
Further, the peptides (a) and (b) were similarly examined for cell growth promoting effect on the MC3T3 cells. […] The symbol “cont” in FIG. 3 indicates the results for the cells cultured in αMEM containing 2% FBS alone, “B” indicates the results for the cells cultured in the medium added only with BMP2 (bone morphogenetic protein 2, Yamanouchi Pharmaceutical Co., Ltd.), “HN” indicates the results for the cells cultured in the medium added only with the peptide (b), and “PN” indicates the results for the cells cultured in the medium added with only the peptide (a). […]

ST2 cells = assay: Cell differentiation of ST2 cells (ALP activity); assay type: cell-based, mouse; conditions: for cell differentiation promoting effect on ST2 cells relative to BMP2: at confluent state (FIG. 7), comparison with BMP2; for cell differentiation promoting effect (ALP activity) on ST2 cells: at confluent state, αMEM containing 2% FBS (FIG. 7)
Protocol: as §1
(§2) As an index of cell differentiation, alkaline phosphatase (ALP) activity of cells was determined. Cells were inoculated in a 24-well culture plate at a ratio of 5×10^3 cells/well, added with the peptide (a) at various concentrations and cultured in DMEM or αMEM containing 2% FBS. One week after the time point when the cells reached a confluent state, ALP activity was determined by the following enzymochemical method (Bessey-Lowry method, Bessey O A, Lowry O H and Brock M J, A method for the rapid determination of alkaline phosphatase with five cubic millimeter of serum, J. Biol. Chem., 164:321-329, 1946).
(§3) The cultured cells were washed with PBS and then disrupted in 10 mM Tris-HCl buffer (pH 7.4, 500 μl) for 40 seconds by using an ultrasonic homogenizer (Handy Sonic model UR-20P, Tomy Seiko) and stirred. Then, 25 μl of this sample liquid was added to 125 μl of ALP buffer (0.1 M carbonate buffer, pH 9.8, 6.7 mM p-nitrophenyl phosphate, 2 mM MgCl2) and incubated at 37° C. for 30 minutes. The reaction was terminated by addition of 125 μl of 0.2 N NaOH, and absorbance was measured at 405 nm by using a microplate reader (Model 550, Bio-Rad Laboratories).
(§4) Further, the peptides (a) and (b) and BMP2 were similarly examined by using the ST2 cells and BMMSC cells. The symbol “cont” in the figures indicates the results for the cells cultured in αMEM containing 2% FBS alone, “B” indicates the results for the cells cultured in the medium added only with BMP2, “HN” indicates the results for the cells cultured in the medium added only with the peptide (b), and “PN” indicates the results for the cells cultured in the medium added only with the peptide (a). In the figures, the unit of numerical values shown after “B,” “HN” and “PN” is “ng/ml.”
Further, the peptides (b) and (k) to (n) were similarly examined at a final concentration of 100 ng/ml by using the ST2 cell strain. The symbol “cont” in the figure indicates the results for the cells cultured in DMEM containing 2% FBS alone.

[1] = test system: Rat femur bone marrow-derived mesenchymal stem cells (BMMSC); assay: Cell differentiation of BMMSC cells (ALP activity); assay type: cell-based; conditions: for cell differentiation promoting effect on BMSSC cells relative to BMP2: at confluent state (FIG. 8), comparison with BMP2; for cell differentiation promoting effect (ALP activity) on BMSSC cells: at confluent state, αMEM containing 2% FBS (FIG. 8)
Text: Rat femur bone marrow-derived mesenchymal stem cells (BMMSC) were used. The cell strain of the cells was obtained according to the method of Maniatopoulos et al. (Maniatopoulos C, Sodek J and Melcher A H, Bone formation in vitro by stromal cells obtained from bone marrow of young adult rats, Cell Tissue Res., 254: 317-330, 1988). The femur was aseptically extracted, and surrounding soft tissue was removed as far as possible. The mesiodistal epiphysis of the femur was cut off, and the femur marrow tissue in 5 ml of 15S-containing minimum essential medium alpha medium (αMEM, GIBCO) was injected into 10 ml of the same culture broth by using a syringe. The obtained tissue was cultured in the 15S-containing αMEM at 37° C., and the 3rd to 5th generation cells were used for experiments. • (iv) Mouse-derived Cementoblasts
as §2, §3, §4

bone loss model = assay: Bone loss model (tibia defect, soft X-ray); assay type: in vivo, Wistar rats; conditions: for bone regeneration at the bone loss site (X-ray): peptide 3 mg/ml with collagen gel (Koken Atelocollagen Implant), versus control and collagen gel groups
Protocol: The following experiment was performed in order to examine action of the peptide of the present invention on a bone loss model. • (i) Preparation of Bone Loss Model Male Wistar rats (8-week old) were systemically anesthetized with an ethyl carbamate solution in a volume of 0.5 ml per 100 g of body weight, then the skin of the right and left hind leg tibiae and the periostium of tibiae were incised, and the periostium were reflected to expose the tibiae. Then, a hole having a diameter of 2 mm was perforated in the cortical bone at the same site by using a round bur under pouring physiological saline to form a defect reaching the medullary cavity (diameter: 2 mm, depth: 3 mm). • (ii) Test Method The bone loss site was filled with the peptide (a) (concentration: 0.3 mg/ml or 3 mg/ml) dissolved in a sodium hyaluronate preparation (trade name: ARTZ (registered trade mark), weight average molecular weight of sodium hyaluronate: about 900,000, concentration of sodium hyaluronate: 1%), and the periost and the skin were repositioned and sutured. Healing conditions of the animals 3 weeks after the operation in a group of animals filled with the peptide (peptide group), a group of animals applied with 1% PBS solution of sodium hyaluronate as a vehicle alone (HA group) and a group of animals applied with no substance before the suture of the skin periosteal flap (control group) were examined by using X-ray. • (iii) Results In a similar manner, experiments were performed with collagen gel (trade name: Koken Atelocollagen Implant, Koken) and the peptides (a) and (b) (concentration: 3 mg/ml).

| Sequence | MC3T3 cell number (cell growth promoting effect) (MC3T3 cells) | cell differentiation promoting effect on ST2 cells relative to BMP2 (ST2 cells) | cell differentiation promoting effect (ALP activity) on ST2 cells (ST2 cells) | cell differentiation promoting effect on BMSSC cells relative to BMP2 [1] | cell differentiation promoting effect (ALP activity) on BMSSC cells [1] | bone regeneration at the bone loss site (X-ray) (bone loss model) | bone regeneration at the bone loss site (soft X-ray images) (bone loss model; peptide (a) 0.3 mg/ml or 3 mg/ml in 1% sodium hyaluronate preparation (ARTZ), 3 weeks after operation, versus control and HA groups) |
| --- | --- | --- | --- | --- | --- | --- | --- |
| VPAFPRQPGTPGVASL [Peptide (a)] | significantly increased | comparable to or higher than that of BMP2 | significant cell differentiation promoting effect | comparable to or higher than that of BMP2 | significant cell differentiation promoting effect | bone had been regenerated to such an extent that bone loss could hardly be recognized | bone had been regenerated to such an extent that bone loss could hardly be recognized |
| VPFFPQQSGTPGMASL [Peptide (b), peptide designed on the portion of human-derived sheathlin protein corresponding to (a)] | significantly increased | comparable to or higher than that of BMP2 | significant cell differentiation promoting effect | comparable to or higher than that of BMP2 | significant cell differentiation promoting effect | bone had been regenerated to such an extent that bone loss could hardly be recognized | – |
